Source: PubChem BioAssay (NCI)
Several values for one entry are separate records, joined by “and”; a condition that tells them apart may be missing. Equal values may be shown once.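 How tested: cells in 96-well plates exposed to compound for 48 hours at five concentrations. At the GI50, growth is halved. TGI marks complete inhibition of growth.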

What was measured:
Assay in all cases: DTP human tumour cell line panel, 48 h
[1] = tested on: MALME-3M melanoma
[2] = tested on: MDA-MB-435
[3] = tested on: PC-3 prostate
[4] = tested on: DU-145 prostate
[5] = tested on: NCI/ADR-RES ovarian
[6] = tested on: NCI-H522 lung
[7] = tested on: HOP-92 NSCLC
[8] = tested on: HS 578T breast
[9] = tested on: MCF7 breast
[10] = tested on: T-47D breast

SMILES	TGI [1]	TGI [2]	TGI [3]	TGI [4]	TGI [5]	TGI [6]	TGI [7]	TGI [8]	TGI [9]	GI50 [1]	GI50 [3]	GI50 [10]	TGI [10]	GI50 [4]	GI50 [5]	GI50 [6]	GI50 [7]	GI50 [8]	GI50 [9]	GI50 [2]
CCC1(OC(=O)CNC)C(=O)OCc2c1cc1n(c2=O)Cc2cc3ccccc3nc2-1 (centres undefined)	1.31 µM	0.279 µM	> 100 µM	0.0124 µM	0.0151 µM	0.285 µM	1.56 µM	40.8 µM	0.198 µM	–	–	–	–	–	–	–	–	–	–	–
CCOC(=O)NC(=O)c1cn(CCCCCCCCCCC(=O)NCCCN2CCN(CCCNC(=O)CCCCCCCCCCn3cc(C(=O)NC(=O)OCC)c(=O)[nH]c3=O)CC2)c(=O)[nH]c1=O	> 100 µM	–	–	–	–	> 10 µM	> 100 µM	–	–	–	–	–	–	–	–	–	–	–	–	–
COc1ccc(/C(=C/c2ccc3ccccc3c2)c2nn[nH]n2)cc1OC	> 100 µM	–	> 100 µM	49.2 µM	> 100 µM	35.8 µM	79.8 µM	53.6 µM	> 100 µM	3.08 µM	2.36 µM	28.2 µM	> 100 µM	3.53 µM	1.03 µM	1.14 µM	4.59 µM	2.23 µM	4.12 µM	–
Cc1ccc(NC(=O)CCc2nnc3s/c(=C\c4cccc([N+](=O)[O-])c4)c(=O)n23)cc1	> 100 µM	–	–	–	–	> 100 µM	> 100 µM	–	–	–	–	–	–	–	–	–	–	–	–	–
c1ccc(COCC[P+](c2ccccc2)(c2ccccc2)c2ccccc2)cc1	–	6.28 µM	5.32 µM	26.2 µM	57.1 µM	4.17 µM	–	17.9 µM	7.27 µM	–	0.519 µM	0.259 µM	21.6 µM	2.01 µM	19.7 µM	0.467 µM	–	2.81 µM	0.564 µM	0.601 µM
Cc1cc(Cl)ccc1NC(=O)CC1SC(=NC(=O)c2ccccc2Cl)NC1=O (centres undefined)	37.1 µM	–	–	–	–	29 µM	35.9 µM	–	–	–	–	–	–	–	–	–	–	–	–	–
O=C(/C=C\c1cc(Br)ccc1O)/C=C/c1cc(Br)ccc1O	3.08 µM	1.53 µM	3.08 µM	2.17 µM	12.9 µM	–	3.69 µM	39.2 µM	2.13 µM	1.5 µM	0.63 µM	0.635 µM	4.94 µM	0.814 µM	0.321 µM	–	1.57 µM	1.25 µM	0.339 µM	0.355 µM
CC12CCCC(C#N)(C1)OC2=O (centres undefined)	> 100 µM	–	–	–	–	> 100 µM	> 100 µM	–	–	–	–	–	–	–	–	–	–	–	–	–
O=C(CCC(=O)Nc1ccc(Cl)cc1)CC(=O)c1ccc2ccccc2c1	> 100 µM	–	–	–	–	> 100 µM	> 100 µM	–	–	–	–	–	–	–	–	–	–	–	–	–
CC(=O)n1nnc2ccc([N+](=O)[O-])cc21	> 100 µM	–	–	–	–	> 100 µM	> 100 µM	–	–	–	–	–	–	–	–	–	–	–	–	–
COc1ccc(Cc2cc(OC)c(OC)c(OC)c2)cc1	> 100 µM	> 100 µM	> 100 µM	6.38 µM	> 100 µM	0.798 µM	85.6 µM	–	> 100 µM	–	–	–	89.8 µM	–	–	–	–	–	–	–
COC1=CC(c2ccc[nH]2)=N/C1=C\c1[nH]c(C)c(C(=O)Oc2ccccc2)c1C	–	–	> 100 µM	> 100 µM	1.46 µM	0.979 µM	0.564 µM	0.828 µM	1.49 µM	–	0.117 µM	0.403 µM	1.8 µM	0.295 µM	0.185 µM	0.227 µM	0.189 µM	0.205 µM	0.272 µM	–
COc1cccc(CCNC(=O)CC(c2ccccc2)(c2ccccc2)c2ccccc2)c1	–	> 100 µM	> 100 µM	> 100 µM	> 100 µM	–	> 100 µM	> 100 µM	> 100 µM	–	6.12 µM	> 100 µM	> 100 µM	26.8 µM	5.26 µM	–	> 100 µM	> 100 µM	21.5 µM	6.5 µM
N#CCCN(C1=NN(C(=O)CC(=O)Nc2ccc(Cl)cc2)C(c2ccccc2)C1)c1ccc(Cl)cc1 (centres undefined)	> 100 µM	–	–	–	–	> 100 µM	> 100 µM	–	–	–	–	–	–	–	–	–	–	–	–	–
O=C1c2cccc([N+](=O)[O-])c2C(=O)c2nccnc21	3.04 µM	–	–	–	–	2.75 µM	18.6 µM	–	–	–	–	–	–	–	–	–	–	–	–	–
CC(=O)NNc1nc(C)c(C(/C=C/c2ccc(Cl)cc2)=N\N=C(N)N)s1	> 100 µM	–	–	–	–	> 100 µM	> 100 µM	–	–	–	–	–	–	–	–	–	–	–	–	–
C/C=C(\C)c1cc(=O)c2c(C)cc3c(c2o1)C(OC)(OC(C)=O)c1c(O)c(C2CC(C)(N(C)C)C(OC(C)=O)C(C)O2)cc(C2CC(N(C)C)C(OC(C)=O)C(C)O2)c1C3=O (centres undefined)	2.37 µM	–	> 100 µM	5.08 µM	> 25.7 µM	–	6.91 µM	7.63 µM	> 100 µM	–	–	–	17.6 µM	–	–	–	–	–	–	–
COC(=O)C1CC(c2ccc(Cl)cc2)=NO1 (centres undefined)	> 100 µM	–	–	–	–	> 100 µM	> 100 µM	–	–	–	–	–	–	–	–	–	–	–	–	–
Cc1ccc2nc(Sc3c([N+](=O)[O-])ncn3C)[nH]c2c1	47.4 µM	–	–	–	–	–	41.3 µM	–	–	–	–	–	–	–	–	–	–	–	–	–
CC(=O)N(C)c1cc(NCc2ccccc2)ccc1OCc1ccccc1	35.3 µM	32.2 µM	–	32.7 µM	44.8 µM	34 µM	30 µM	91 µM	35.2 µM	–	–	–	> 100 µM	–	–	–	–	–	–	–
COC(=O)[C@H](Cc1ccccc1)NNC(=O)c1csc([C@@H](C[C@H](C(C)C)N(C)C(=O)[C@@H](NC(=O)[C@H]2CCCCN2C)C2CC2)OC(C)=O)n1	> 100 µM	–	25 µM and > 100 µM	25 µM and > 100 µM	25 µM and > 100 µM	–	–	> 100 µM	25 µM and > 100 µM	–	–	–	–	–	15.7 µM and 11 µM	0.00154 µM and 0.0144 µM	–	–	0.00392 µM and 0.0025 µM and 0.0244 µM	0.00165 µM and 0.0151 µM
COc1ccc(NC(=S)C#N)cc1	–	> 100 µM	> 100 µM	> 100 µM	> 100 µM	–	> 100 µM	–	> 100 µM	–	–	–	> 100 µM	–	–	–	–	–	–	–
COc1ccc(C2CC(c3ccccc3)=NN2C(=O)c2cc(OC)c(OC)c(OC)c2)cc1O (centres undefined)	> 100 µM	–	> 52.8 µM	–	–	7.03 µM	33.2 µM	1.13 µM	> 53.6 µM	41.2 µM	0.369 µM	–	–	0.479 µM	0.552 µM	0.335 µM	1.72 µM	0.316 µM	0.339 µM	–
COc1cccc(N2C(=O)/C(=C/c3ccc(N(CCC#N)CCC#N)cc3)N=C2c2cc([N+](=O)[O-])ccc2Cl)c1	> 100 µM	–	–	–	–	> 100 µM	–	–	–	–	–	–	–	–	–	–	–	–	–	–
